Source: publication PMC9517990 (Communications Biology, 2022)

How the values were obtained:
[1] = system: A/South Korea/90207/2020 WT virus (NA-H275, PA-I38); assay: microbe, parasite or virus in culture; format: cell-based, influenza A(H1N1)pdm09 virus; conditions: Influenza A virus, MDCK, 24 h, read-out: EC50 nM ± SD (column headed IC50; footnote: EC50)
[2] = target: neuraminidase of A/South Korea/90207/2020 WT virus (NA-H275, PA-I38) (Influenza A virus (A(H1N1)pdm09), UniProt A0A0X9QTS2); format: biochemical

Compound	EC50 [1] [nM]	IC50 [2] [nM]
O=C1c2c(O)c(=O)ccn2N([C@@H]2c3ccccc3SCc3c2ccc(F)c3F)[C@@H]2COCCN12 [Baloxavir, Baloxavir acid]	1 ± 0.2	–
CCC(CC)[C@H](NC(C)=O)[C@@H]1[C@H](O)[C@@H](C(=O)O)C[C@H]1N=C(N)N [Peramivir, peramivir]	–	0.16
